# Reference: patent publication US5773239A, “Mannosidase inhibitors, process for their preparation and their use as therapeutic agents” (Mount Sinai Hospital Corporation., priority 1995, dated 1998)
# Read-outs that look alike come from different tables or passages of the source.
# Key:
# [1] = target: T1, MDAY-D2 lysosomal α-mannosidases (Mus musculus, UniProt O09159); assay: Inhibition of lysosomal α-mannosidases in MDAY-D2 tumor cell lysate; assay type: biochemical
# T1 construct: 10 μl MDAY-D2 tumor cell lysate; endogenous in cells; host or cells: MDAY-D2 tumor cells (lysate)
# T1 sequence (O09159 50-1013): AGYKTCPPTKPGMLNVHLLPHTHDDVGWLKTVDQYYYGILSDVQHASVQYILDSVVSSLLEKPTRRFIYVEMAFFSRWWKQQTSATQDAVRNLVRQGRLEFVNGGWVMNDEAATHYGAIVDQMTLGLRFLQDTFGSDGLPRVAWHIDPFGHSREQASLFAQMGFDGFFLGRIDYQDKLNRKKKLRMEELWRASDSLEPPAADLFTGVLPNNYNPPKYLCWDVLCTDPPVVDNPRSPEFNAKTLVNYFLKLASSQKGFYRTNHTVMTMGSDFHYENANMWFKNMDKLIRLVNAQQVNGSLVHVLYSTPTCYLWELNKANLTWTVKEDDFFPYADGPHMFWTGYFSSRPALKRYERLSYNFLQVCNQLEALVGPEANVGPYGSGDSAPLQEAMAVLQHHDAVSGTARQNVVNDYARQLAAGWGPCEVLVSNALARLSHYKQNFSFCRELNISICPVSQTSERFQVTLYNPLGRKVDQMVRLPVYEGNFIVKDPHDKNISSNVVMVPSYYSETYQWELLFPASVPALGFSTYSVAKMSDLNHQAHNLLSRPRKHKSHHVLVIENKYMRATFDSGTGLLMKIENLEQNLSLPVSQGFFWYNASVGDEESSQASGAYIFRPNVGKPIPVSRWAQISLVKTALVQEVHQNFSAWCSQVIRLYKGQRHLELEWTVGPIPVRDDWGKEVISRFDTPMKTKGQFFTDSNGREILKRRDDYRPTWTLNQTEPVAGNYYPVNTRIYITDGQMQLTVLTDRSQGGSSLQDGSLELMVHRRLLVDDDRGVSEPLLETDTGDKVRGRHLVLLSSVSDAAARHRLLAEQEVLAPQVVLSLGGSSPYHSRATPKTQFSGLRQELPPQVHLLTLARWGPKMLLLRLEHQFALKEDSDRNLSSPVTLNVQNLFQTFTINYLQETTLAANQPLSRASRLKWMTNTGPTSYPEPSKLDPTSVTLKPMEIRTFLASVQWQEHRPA
# Experimental: SW and analogues were serially diluted into a volume of 75 μl in 96 well Elisa plates followed by the addition of 37.5 μl of 100 mM sodium acetate pH 5.0 and 37.5 μl of 10 mM p-nitrophenyl α-D-mannospyranoside. Jack Bean α-mannosidase (Sigma, 38 U/ml) was diluted 1/800, 10 μl was added to each well and the plates were incubated for 20 min at 37° C. The reaction was stopped by the addition of 150 μl of 0.5M sodium carbonate and formation of p-nitrophenol was measured with a plate set at 405 nm. The effects of SW and analogues on cellular acid α-mannosidases (ie. lysosomal enzyme) were measured using the same assay where Jack Bean α-mannosidase was replaced by 10 μl MDAY-D2 tumor cell lysate (10 μg/μl of protein) prepared in 0.9% NaCl, 50 mM Tris pH 7.0, 0.5% Triton X-100 and 1.0 mM diethyl p-nitrophenyl phosphate.
# bone marrow cells = assay: Bone marrow cell proliferation assay; assay type: in vivo, C57B1/6J mice; conditions: 10 ug/injection i.p. twice daily, four days; mean +/- S.E. of 4 experiments
# Experimental: Pathogen-free C57B1/6J mice, 8-14 weeks old were maintained according to NIH ethical guidelines. Groups of 2-3 mice received intraperitoneal injections of the PBS, SW or designated analog twice daily for 4 days. […] Eighteen hours after the last SW injection, mice were sacrificed and BM cells were harvested. Marrow cell suspensions were prepared under sterile conditions using femurs and tibias of both legs from each donor. Bone marrow (BM) cells were flushed from the marrow cavities with ice-cold RPMI 1640, washed and resuspended at desired concentrations in RPMI-1640 supplemented with 5% FCS, penicillin (100 U/ml) and streptomycin (100 μg/ml). Cell viability was monitored by staining with trypan blue. The ability of the analogues to stimulate BM proliferation was measured by two methods. First, cellularity was determined by directly counting BM cells after they were flushed from the tibias and femurs. Second, enhancement in proliferation was assessed by the increase in the proportion of BM progenitor cells present in the BM preparations as measured by colony formation in soft agar (CFU). BM cells were processed according to the procedures of the GIBCO-BRL Mouse Bone Marrow Stem Cell Proliferation Kit, which employs suspensions of mononuclear cells in a semi-solid methylcellulose medium containing FCS. 2-mercaptoethanol and the growth factors, interleukin-3 (IL-3) (75 U/ml) and erythropoietin (20 U/ml). The plates were incubated for 10-14 days at 37° C. in a humidified atmosphere of 5% CO2 and 95% air, and colonies consisting of at least 40 cells were enumerated using an inverted microscope. The potential colonies that form in the semi-solid medium are the granulocyte, erythrocyte, monocyte, megakaryocyte (ie. CFU-GEMM); the granulocyte, macrophage (ie. CFU-GM), and the burst forming unit-erythroid(ie BFUe).
# Mice were given twice daily intraperitoneal injections of PBS, SW or the analogues at 10 ug/injection. After four days of injections, BM cells were flushed from the femurs and tibias and counted. CFUs growing in soft agar consisting of at least 40 cells were enumerated. The results are the mean +/-S.E. of 4 experiments.
# MDAY-D2 tumor cells = assay: L-PHA toxicity assay (inhibition of oligosaccharide processing in cells); assay type: cell-based, mouse; conditions: for IC50 for inhibition of Golgi oligosaccharide processing, higher / activity as inhibitors of Golgi oligosaccharide processing in viable MDAY-D2 tumor cells: compared to SW; for IC50: Mus musculus, read-out: IC50 for Inhibition of L-PHA Toxicity
# Experimental: MDAY-D2 tumor cells were inoculated into 96 well micro-test plates at 2×10^4 cells/well, and containing serial dilutions of SW or SW analogues in MEM plus 10% FCS. The cells were cultured for 18-20 hr, followed by the addition of L-PHA at 25 μg/ml for an additional 24 hr. Cell proliferation was measured by adding 0.5 μCi/well of ^3 H-thymidine for 3-4 hr, harvesting onto glass fibre disks using a Titertek harvester and the disks were counted in a liquid scintillation counter. The apparent IC50 values for SW and the analogues are the drug concentrations showing 50% protection from L-PHA toxicity; that is 50% ^3 H-thymidine incorporated compared with cells grown in the absence of L-PHA. In experiments using the esterase inhibitor diethyl p-nitrophenyl phosphate, the compound was added to MDAY-D2 cells 4 hr prior to the α-mannosidase inhibitors and was present through-out the experiment.
# [2] = MDAY-D2 tumor cell lysate, pH 5.0, read-out: IC50 for inhibition of MDAY-D2 α-mannosidase
# [3] = MDAY-D2 tumor cells, L-PHA 25 μg/ml, 50% protection by 3H-thymidine incorporation
Compound,"IC50 [1, 2] [µM]",BM cellularity (bone marrow cells) [cells × 10^7],CFU (bone marrow cells) [colonies/10^7 cells],"IC50 for inhibition of Golgi oligosaccharide processing, higher (MDAY-D2 tumor cells; MDAY-D2 tumor cells)",IC50 (MDAY-D2 tumor cells; [3]) [µM],activity as inhibitors of Golgi oligosaccharide processing in viable MDAY-D2 tumor cells (MDAY-D2 tumor cells),IC50 [1] [µM],"IC50 (MDAY-D2 tumor cells; MDAY-D2, 3 h) [µM]"
O=C(OC1CN2CCCC(O)C2C1O)c1ccccc1 (stereo not drawn) [2-benzoyloxy-SW],720,5.77 ± 0.00,421 ± 44,at least 10 times,1.8,,,
CCCC(=O)OC1CN2CCCC(O)C2C1O (stereo not drawn) [2-butanoyloxy-SW],35,3.80 ± 0.91,545 ± 59,,0.23,retained full activity,,
CCCCCCCC(=O)OC1CN2CCCC(O)C2C1O (stereo not drawn) [2-octanoyloxy-SW],35,,482 ± 22,,0.23,retained full activity,,
O=C(OC1CN2CCCC(O)C2C1O)c1ccc([N+](=O)[O-])cc1 (stereo not drawn) [2-p-nitrobenzoyloxy-SW],35,3.60 ± 0.42,380 ± 7,,0.23,retained full activity,,
Cc1ccc(C(=O)O[C@@H]2CN3CCC[C@@H](O)[C@@H]3[C@@H]2O)cc1 [2-toluoyloxy-SW],69,3.40 ± 0.25,384 ± 25,at least 10 times,3.4,,,
"OC1CN2C[C@@H](O)[C@@H](O)[C@H]2[C@H](O)C1O (stereo partly drawn) [6,7-dihydroxy-SW]",10,5.20 ± 0.03,538 ± 5,,> 5,,,
CCCCCCCCCCCCCC(=O)OC1CCCN2CC(O)C(O)C12 (stereo not drawn) [8-myristinoyloxy-SW],> 500,4.80 ± 0.24,226 ± 6,at least 10 times,> 2.5,,,
CCCCCCCCCCCCCCCC(=O)OC1CCCN2CC(O)C(O)C12 (stereo not drawn) [8-palmitoyloxy-SW],500,5.10 ± 0.57,553 ± 32,at least 10 times,> 2.5,,,
"O[C@H]1[C@H]2[C@H](O)CCCN2C[C@H]1O [SW, Swainsonine, reference compound]",,4.50 ± 0.42,540 ± 34,,,,0.5,0.2
